In PMC8968665, “Verteporfin is a substrate-selective γ-secretase inhibitor that binds the amyloid precursor protein transmembrane domain” (The Journal of Biological Chemistry, 2022):
Several values for one entry are separate records, joined by “and”; a condition that tells them apart may be missing. Equal entries are not always repeated. Entries after “also recorded” stand apart in the source; their conditions may differ. Where two headings read alike, the source gives them in different places.

Experiments:
[1] = target: T1, C99 domain of the human amyloid precursor protein (Homo sapiens, UniProt P05067); assay: TROSY NMR titration of C99 by verteporfin, fit to 1:1 binding model
T1 construct: the transmembrane 99 residue C-terminal (C99) domain; His tag (either the C-terminal hexa-His that is kept, or the N-terminal His of C99-NT2 removed by thrombin); made in house; host or cells: E. coli BL21DE3
Description: The preparation of NMR screening samples consisted of final concentrations of 50 μM C99, 2.5% w/v LMPG, […] buffer imidazole, 5% v/v D2O, 0.5 mM EDTA, pH 6.5. To ensure that these final conditions were maintained, the individual components of the screening samples were added from stocks in a specific order. For example, to make 10 ml of screening sample in imidazole NMR buffer, the following was added: (1) 10 by 250 μl frozen stocks of 200 μM protein were thawed on ice and transferred to a 15 ml conical vial; (2) 1.25 ml of 20% w/v LMPG stock (dissolved in H2O) was added to the conical vial, which was mixed by vortexing; (3) 1 ml of 10× concentrated imidazole NMR buffer was added to the conical vial and mixed by vortexing; (4) the sample was then diluted to 10 ml by adding 4.75 ml of ddH2O and 0.5 ml of D2O and allowed to reach equilibrium for at least 60 min. This final pool contained 50 μM C99, 25 mM imidazole, 100 mM NaCl, 2.5% LMPG, 5% v/v D2O, 0.5 mM EDTA, pH 6.5. At that point, the samples (199 μl for each well) were distributed into 96-well plates containing predispensed compounds, thoroughly mixed by pipette, and the complete 200 μl mixtures were transferred to 3 mm x 4 inch NMR tubes. At this point, each 3 mm NMR tube contained a 200 μl sample of 50 μM C99, 50 μM Compound, 25 mM imidazole, 100 mM NaCl, 2.5% w/v LMPG, 5% v/v D2O, 0.5% v/v DMSO, 0.5 mM EDTA, pH 6.5. Loaded NMR tubes were cleaned with 100% Ethanol on a kimwipe, securely capped, and transferred to an NMR tube rack compatible with a Bruker SampleJet system.
(§1) A Bruker Avance III 600 MHz NMR spectrometer equipped with a cryoprobe (CPTCI) and automated sample changer (SampleJet) was used to collect NMR spectra. Sample details are described above. For high-throughput screening data collection, the ^15N-^1H BEST-TROSY (b_trosy3gpph.2) experiment with 64 scans for each of 96 increments and a relaxation delay of 200 ms was run at 318 K for a total data acquisition time of 35 min per sample. To achieve enhanced signal-to-noise ratio, follow-up titrations and control experiments were conducted using the BEST-TROSY pulse program with 200 scans per 96 increments at 318 K, for a total data acquisition time of 110 min per sample. Data were processed using Bruker Topspin 3.6 using a Gaussian window function with a line broadening of -10 and a Gaussian max of 0.1 in both dimensions. NMR data were then further processed and analyzed using NMR-FAM SPARKY, plotted using GraphPad Prism 9, and prepared for publication figures using Affinity Designer.
2D ^15 N-^1H HSQC NMR data used to calculate dissociations constant (KD) values by first normalizing 2D data using the established formula ([78]) (Equation 1):(1) δ(1H,15N)=√(1/2[δ2H+.14∗δ2N]) Where δ(1H,15N) is the square root of linear chemical shifts in each respective dimension, δH and δN with the Nitrogen normalization factor of 0.14.
After 2D normalization, the data were fit to a hyperbolic binding isotherm using one of the following formulas depending of the data:(2) Y=Bmax∗X/(KD+X)+NS∗X
For this equation, Y is the total binding, Bmax is the maximum binding in the same units as Y, X is the added ligand in molar units, KD is the equilibrium dissociation constant in the same units as X, and NS is a linear term to account for either vehicle or nonspecific verteporfin effects.(3) Y=Bmax∗X/(KD+X)
For this equation, Y is the total binding, Bmax is the maximum binding in the same units as Y, X is the added ligand in molar units, KD is the equilibrium dissociation constant in the same units as X. 1D NMR-binding curves were generated by directly inputting 1D chemical shift perturbations directly into the proper version of Equation 2. Peak height data, such as that quantified in Figures 4 and S4, were first generated using the peak-picking function in NMRFAM Sparky, and peak heights as a function of ligand concentration were used to generate a KD by addition into Equation 2.

C99 L723A = tested on: T2, C99 L723A; assay: TROSY NMR titration of C99 L723A mutant by verteporfin; type: binding, human; settings: LMPG micelles, up to 300 µM verteporfin, n=1
T2 construct: the transmembrane 99 residue C-terminal (C99) domain; hexa-His; made in house
Description: as §1

[2] = target: T3, γ-secretase cleavage of Notch-1 TM/JM (Homo sapiens, UniProt P49768+Q92542+Q96BI3+Q9NZ42); assay: γ-Secretase assay, Notch-1 TM/JM cleavage, NICD by anti-V1744 Western blot; type: biochemical
T3 construct: made in house; host or cells: Notch-1 TM/JM: E. coli BL21DE3 Star
Description: The γ-secretase-dependent proteolysis assays with both substrates (C100-FLAG and HexaHis Notch 1 JM/TM) were performed in a weak zwitterionic detergent (CHAPSO, 3-[(3- cholamidopropyl)dimethylammonio]-2-hydroxy-1-propanesulfonate) solubilized conditions ([79], [80]). C100 is C99 with an added N-terminal Met residue. Stock solution of purified γ-secretase ([81], [82]) was diluted to 30 nM in standard assay buffer containing 50 mM HEPES (pH 7.0), 150 mM NaCl, 0.1% DOPC (phosphatidylcholine), 0.025% DOPE (phosphatidylethanolamine), and 0.25% CHAPSO) and incubated at 37 °C for 30 min, whereupon stock solution of verteporfin or inhibitor (LY411,575) was added to achieve the desired concentration with 1% final DMSO concentration. Proteolytic reactions were initiated by adding purified substrates (either C100-FLAG(79) or HexaHis-Notch 1 JM/TM(77)) and incubating at 37 °C (16 h for C100Flag and 4 h for HexaHis-Notch 1 JM/TM). Reactions were quenched with SDS, and the cleaved intracellular domain products (AICD-FLAG released from C100-FLAG or truncated intracellular domain (NICD) released from the proteolysis of Hexa-His Notch 1 JM/TM) were visualized by Western blot using specific primary antibodies, anti-FLAG antibody for FLAG-tagged AICD, and neoepitope-specific anti-V1744 antibody for NICD ([80], [83], [84]).

T1 sequence (P05067 672-770 limits assumed): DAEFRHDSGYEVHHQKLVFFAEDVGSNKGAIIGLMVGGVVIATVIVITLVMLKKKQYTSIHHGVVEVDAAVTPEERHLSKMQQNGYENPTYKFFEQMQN
T3 sequence (Q92542 34-709, other chains not shown): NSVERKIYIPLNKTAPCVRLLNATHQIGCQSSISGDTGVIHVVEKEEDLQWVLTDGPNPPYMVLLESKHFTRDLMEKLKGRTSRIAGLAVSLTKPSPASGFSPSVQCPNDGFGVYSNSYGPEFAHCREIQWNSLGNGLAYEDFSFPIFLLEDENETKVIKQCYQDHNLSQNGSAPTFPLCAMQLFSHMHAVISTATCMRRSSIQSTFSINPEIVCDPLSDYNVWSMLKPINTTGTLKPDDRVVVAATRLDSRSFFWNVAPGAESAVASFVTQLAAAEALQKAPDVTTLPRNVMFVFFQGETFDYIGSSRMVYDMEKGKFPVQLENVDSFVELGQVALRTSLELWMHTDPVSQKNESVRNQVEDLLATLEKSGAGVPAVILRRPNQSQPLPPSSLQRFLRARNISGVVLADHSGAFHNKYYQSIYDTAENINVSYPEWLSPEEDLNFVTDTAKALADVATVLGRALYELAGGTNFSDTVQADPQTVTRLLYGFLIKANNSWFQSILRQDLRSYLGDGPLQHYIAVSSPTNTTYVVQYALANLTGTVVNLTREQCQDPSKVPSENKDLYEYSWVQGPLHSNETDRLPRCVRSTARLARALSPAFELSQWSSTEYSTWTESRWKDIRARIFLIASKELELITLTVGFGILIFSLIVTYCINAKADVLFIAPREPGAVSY
T3 sequence (Q96BI3 whole entry, other chains not shown): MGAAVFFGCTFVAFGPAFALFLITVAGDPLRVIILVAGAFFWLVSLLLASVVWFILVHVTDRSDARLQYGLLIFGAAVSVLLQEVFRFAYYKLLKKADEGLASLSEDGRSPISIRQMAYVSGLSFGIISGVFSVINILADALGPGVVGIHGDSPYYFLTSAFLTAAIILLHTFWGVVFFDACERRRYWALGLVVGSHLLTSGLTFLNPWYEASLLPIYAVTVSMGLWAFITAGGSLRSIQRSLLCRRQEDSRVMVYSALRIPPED
T3 sequence (Q9NZ42 whole entry, other chains not shown): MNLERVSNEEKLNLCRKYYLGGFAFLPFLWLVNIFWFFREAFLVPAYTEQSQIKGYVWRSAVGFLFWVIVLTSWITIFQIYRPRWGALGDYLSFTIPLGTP

## verteporfin
[1]; C99 in model membranes, read-out: KD of 1:1 complex
  Kd: ~17 µM
[1]; D6PC/DMPC (q = 0.33) bicelles, n = 1, error of the fit, Fig. 3C, read-out: KD from C99 peak E766
  Kd: 17 ± 4 µM
[1]; D6PC/DMPC (q = 0.33) bicelles, n = 1, error of the fit, Fig. 3C, read-out: KD from C99 peak T761
  Kd: 16 ± 4 µM
[1]; LMPG micelles, 50 μM C99, pH 6.5, 318 K, 1:1 binding model, read-out: average dissociation constant (KD) across multiple residues in and around the TM domain
  Kd: 17 ± 11 µM
[1]; depending on the membrane mimetic used (LMPG, DDMB micelles, DHPC-DMPC bicelles), read-out: KD range across membrane mimetics
  Kd: 15 to 47 µM and 10 to 50 µM
[1]; nonionic DDMB micelles, n=1, error of the fit, Fig. S2C, read-out: KD from fitting of two different peaks
  Kd: 43 µM and 47 µM
[1]; untagged C99 in DDMB micelles, Fig. S2 title, read-out: KD
  Kd: 45 ± 22 µM
C99 L723A
  binding to C99 L723A: nearly complete lack of binding; also recorded: binding was disrupted
[2]; 30 nM γ-secretase
  reduction of Notch-1 cleavage at saturating verteporfin: approximately 75%
[2]; 30 nM γ-secretase, Notch-1 TM/JM, 4 h, 37 °C, n = 3, estimated, at concentrations above 200 μM, read-out: IC50, inhibition of NICD production
  IC50: 240 ± 66 µM
[2]; verteporfin at 164 μM (IC50 for C99 cleavage)
  inhibition of Notch-1 cleavage: no inhibition
[2]; verteporfin below ca. 200 μM, relative to 0 verteporfin
  effect on Notch-1 cleavage at low concentrations: first activated; also recorded: enhanced; also recorded: stimulate
